For the experiment, the target named is T1, hFXR (Homo sapiens, UniProt Q96RI1).
T1 construct: expressed in transfected cells; host or cells: CV-1 cells
T1 sequence (Q96RI1 1-486): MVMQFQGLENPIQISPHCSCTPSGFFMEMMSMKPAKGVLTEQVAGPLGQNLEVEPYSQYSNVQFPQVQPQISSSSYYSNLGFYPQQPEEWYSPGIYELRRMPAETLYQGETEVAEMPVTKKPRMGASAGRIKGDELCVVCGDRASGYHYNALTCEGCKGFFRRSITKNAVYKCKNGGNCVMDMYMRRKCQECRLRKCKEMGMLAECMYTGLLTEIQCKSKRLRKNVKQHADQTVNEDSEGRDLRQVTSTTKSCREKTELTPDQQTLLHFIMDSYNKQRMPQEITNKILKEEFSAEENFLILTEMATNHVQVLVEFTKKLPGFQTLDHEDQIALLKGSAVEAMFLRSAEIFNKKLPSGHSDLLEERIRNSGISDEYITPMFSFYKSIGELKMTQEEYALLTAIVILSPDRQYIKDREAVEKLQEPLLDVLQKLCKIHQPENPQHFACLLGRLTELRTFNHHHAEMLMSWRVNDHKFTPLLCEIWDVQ
T1 sequence (P19793 1-462 partner): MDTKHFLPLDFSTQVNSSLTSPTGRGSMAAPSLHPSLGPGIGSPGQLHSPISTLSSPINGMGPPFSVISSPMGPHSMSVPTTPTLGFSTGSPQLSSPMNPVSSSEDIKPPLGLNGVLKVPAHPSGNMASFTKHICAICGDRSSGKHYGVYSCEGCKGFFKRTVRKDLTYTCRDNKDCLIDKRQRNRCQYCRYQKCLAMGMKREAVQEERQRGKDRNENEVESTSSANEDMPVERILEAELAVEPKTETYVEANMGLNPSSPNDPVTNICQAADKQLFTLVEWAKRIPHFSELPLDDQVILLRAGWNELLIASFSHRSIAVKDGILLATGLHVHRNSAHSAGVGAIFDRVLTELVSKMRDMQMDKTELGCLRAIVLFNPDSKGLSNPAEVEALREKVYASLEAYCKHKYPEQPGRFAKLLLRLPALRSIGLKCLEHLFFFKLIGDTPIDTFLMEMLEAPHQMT
The experiment is described as follows: In Vitro FXR Assay (TK). Particulars: CV-1 cells transfected with hFXR, hRXR, TK-ECRE-luc and pCMX-YFP; compounds incubated 18 hrs; luminescence. It counts as cell-based. Here is the method: CV-1 cells were seeded at a density of 2,000,000 cells in a T175 flask with DMEM+10% charcoal double-stripped FBS and incubated at 37° C. in 5% CO2 for 18 h (O/N).
After 18 h of incubation, the medium in the T175 flask was changed with fresh DMEM+10% charcoal super-stripped serum. In a polypropylene tube, 2500 μL OptiMEM (Life Technologies, Cat #31985-062) was combined with expression plasmids for hFXR, hRXR, TK-ECRE-luc and pCMX-YFP. The tube was then briefly vortexed and incubated at room temperature for 5 minutes. Transfection reagent (X-tremeGENE HP from Roche, Cat #06 366 236 001) was added to the OptiMEM/plasmid mixture vortexed and incubated at room temperature for 20 minutes. Following incubation, the transfection reagent/DNA mixture complex was added to cells in the T175 flask and the cells were incubated at 37° C. in 5% CO2 for 18 h (O/N).
Compounds were serially diluted in DMSO and added to transfected CV-1 cells. The cells were then incubated for 18 hrs. The next day cells were lysed and examined for luminescence.

Molecules are shown by their SMILES. pEC50: −log10 of the molar value. A value given as a limit tells only on which side of the number the result lay.

Our source for the EC50 values is patent US20200131132A1, “FARNESOID X RECEPTOR AGONISTS AND USES THEREOF” (Metacrine, Inc., priority 2017, published 2020).

One may read the pEC50 as the EC50 on a negative log10 scale, so that one unit is a factor of ten. Higher therefore signals a small EC50. In turn, `COc1ccc(-c2ccc(CN(C(=O)CC(C)(C)C)c3nccc4cc(C(C)(C)O)ccc34)cc2)cc1C` [Compound 17, N-(6-(2-Hydroxypropan-2-yl)isoquinolin-1-yl)-N-((4′-methoxy-3′-methyl-[1,1′-biphenyl]-4-yl)methyl)-3,3-dimethylbutanamide] had a negative logarithm of the EC50 (pEC50) of at least 6.00.
The value for `CCCOc1ccc2c(N(Cc3ccc(-c4ccc(OC)c(C)c4)cc3)C(=O)CC(C)(C)C)nccc2c1` [Compound 11.02, N-((4′-Methoxy-3′-methyl-[1,1′-biphenyl]-4-yl)methyl)-3,3-dimethyl-N-(6-propoxyisoquinolin-1-yl)butanamide] was at least 6.00.
On to `CNC(=O)c1ccc2c(N(Cc3ccc(-c4ccc(OC)c(C)c4)cc3)C(=O)CC(C)(C)C)nccc2c1` [Compound 19.01, 1-(N-((4′-Methoxy-3′-methyl-[1,1′-biphenyl]-4-yl)methyl)-3,3-dimethylbutanamido)-N-methylisoquinoline-6-carboxamide], for which the pEC50 is 5.00 to 6.00.
The figure for `COc1ccc(-c2ccc(CN(C(=O)CC(C)(C)C)c3nccc4cc(OC5CCN(C)CC5)ccc34)cc2)cc1C` [Compound 8.06, N-((4′-Methoxy-3′-methyl-[1,1′-biphenyl]-4-yl)methyl)-3,3-dimethyl-N-(6-((1-methylpiperidin-4-yl)oxy)isoquinolin-1-yl)butanamide] is under 5.00.
With `COc1ccc(-c2ccc(CN(C(=O)CC(C)(C)C)c3nccc4cc(N5CC(O)C5)ccc34)cc2)cc1C` [Compound 6.03, N-(6-(3-Hydroxyazetidin-1-yl)isoquinolin-1-yl)-N-((4′-methoxy-3′-methyl-[1,1′-biphenyl]-4-yl)methyl)-3,3-dimethylbutanamide], the negative-log EC50 (pEC50) was at least 6.00.
The value for `COCCOCc1ccc2c(N(Cc3ccc(-c4ccc(OC)c(C)c4)cc3)C(=O)CC(C)(C)C)nccc2c1` [Compound 9.04, N-((4′-Methoxy-3′-methyl-[1,1′-biphenyl]-4-yl)methyl)-N-(6-((2-methoxyethoxy)methyl)isoquinolin-1-yl)-3,3-dimethylbutanamide] was at least 6.00.
`COc1ccc(-c2ccc(CN(C(=O)CC(C)(C)C)c3nccc4cc(COCC(=O)N(C)C)ccc34)cc2)cc1C` [Compound 19.02, N-(6-((2-(Dimethylamino)-2-oxoethoxy)methyl)isoquinolin-1-yl)-N-((4′-methoxy-3′-methyl-[1,1′-biphenyl]-4-yl)methyl)-3,3-dimethylbutanamide] gave a negative logarithm of the EC50 (pEC50) of 5.00 to 6.00.
`COc1ccc(-c2ccc(CN(C(=O)CC(C)(C)C)c3nccc4cc(OCCCCO)ccc34)cc2)cc1C` [Compound 8.1, N-(6-(4-Hydroxybutoxy)isoquinolin-1-yl)-N-((4′-methoxy-3′-methyl-[1,1′-biphenyl]-4-yl)methyl)-3,3-dimethylbutanamide]: the pEC50 was at least 6.00.
As to `COc1ccc(-c2ccc(CN(C(=O)CC(C)(C)C)c3nccc4ccccc34)cc2)cc1C` [Compound 20, N-(Isoquinolin-1-yl)-N-((4′-methoxy-3′-methyl-[1,1′-biphenyl]-4-yl)methyl)-3,3-dimethylbutanamide], the negative logarithm of the EC50 (pEC50) is at least 6.00.
In turn, `COc1ccc(-c2ccc(CN(C(=O)CC(C)(C)C)c3nccc4cc(OC5CN(C(=O)OC(C)(C)C)C5)ccc34)cc2)cc1C` [Compound 8.07, tert-Butyl 3-((1-(N-((4′-methoxy-3′-methyl-[1,1′-biphenyl]-4-yl)methyl)-3,3-dimethylbutanamido)isoquinolin-6-yl)oxy)azetidine-1-carboxylate] showed a pEC50 of under 5.00.
`COc1ccc(-c2ccc(CN(C(=O)CC(C)(C)C)c3nccc4cc(N5CCC(O)C5)ccc34)cc2)cc1C` (centres unmarked) [Compound 6, N-(6-(3-Hydroxypyrrolidin-1-yl)isoquinolin-1-yl)-N-((4′-methoxy-3′-methyl-[1,1′-biphenyl]-4-yl)methyl)-3,3-dimethylbutanamide] had a pEC50 of at least 6.00.
